In US12358966B2, “Inducible caspases and methods for use” (Poseida Therapeutics, Inc., priority 2016, dated 2025):
Where two headings read alike, the source gives them in different places.

What was measured:
cells [1] = conditions: cited from earlier work
[2] = tested on: cells comprising P-BCMA-101; assay: In vivo killing of cells comprising P-BCMA-101 via iC9 safety switch in NSG mice (huCD45+ cells in blood, spleen, bone marrow); conditions: AP1903 0.005-5 mg/kg on day 12, analysis 24 hours later
Procedure: FIG. 5 is a diagram showing a study timeline and outline for an in vivo study. NSG mice were IV injected with MM.1S/luciferase^+ cells, staged at day 8, injected with T cells on day 9, and treated with AP1903 (Rimiducid) on day 12 at the indicated doses. 24 hours later, mice were euthanized and blood, spleen, and bone marrow cells were collected and stained for the presence of huCD45^+ cells.
Blood, spleen, and bone marrow cells were analyzed by flow cytometry for the presence of huCD45^+ cells. The relative viability was determined by: ((#of huCD45 cells/ #of msCD45 cells)/(Average of huCD45/msCD45 in no treatment group))*100% per 1,500 bead events for each sample. Each data point represents a different mouse. On the x-axis is plotted percent Relative CAR-T Viability from 0 to 175 in increments of 25. […]
NSG mice were IV injected with MM.1S/luciferase^+ cells, staged at day 8, injected with T cells on day 9, and treated with AP1903 (Rimiducid) on day 12 at the indicated doses. […] Blood, spleen, and bone marrow cells were analyzed by flow cytometry for the presence of huCD45^+ cells. The relative viability was determined by dividing the number of huCD45 cells by the number of msCD45 cells and normalizing to the average of huCD45/msCD45 in the no treatment group times, 100% per 1,500 bead events for each sample. […]

Human pan T-cells = assay: iC9 safety switch test: viability of modified T cells by flow cytometry with 7-AAD after incubation with AP1903; format: cell-based; conditions: 24 hours incubation, 0-1000 nM tested
From the text: Human pan T-cells were nucleofected using an Amaxa 4D nucleofector with one of four piggyBac transposons. Modified T cells receiving the “mock” condition were nucleofected with an empty piggyBac transposon. Modified T cells received either a piggyBac […] containing a therapeutic agent alone (a sequence encoding a CARTyrin) or a piggyBac […] containing an integrated iC9 sequence and a therapeutic agent (a sequence encoding a CARTyrin).
To test the iC9 safety switch, each of the four modified T cells were incubated for 24 hours with 0, 0.1 nM, 1 nM, 10 nM, 100 nM or 1000 nM AP1903 (an induction agent for […], also known as Rimiducid). Viability was assessed by flow cytometry using 7-aminoactinomycin D (7-AAD), a fluorescent intercalator, as a marker for cells undergoing apoptosis.
Cell viability was assessed at day 12 (see FIG. 2). […] Moreover, cell viability was assessed at day 19 (see FIG. 3). […]
A quantification of the aggregated results was performed and is provided in FIG. 4, showing the significant impact of the iC9 safety switch on the percent cell viability as a function of the concentration of the induction agent (AP1903, also known as Rimiducid) of the iC9 switch for each modified cell type at either day 12 (FIG. 2 and left graph) or day 19 (FIG. 3 and right graph).

[3] = cited from earlier work
cells [4] = assay: Amount of AP1903 needed in vitro for effective signaling of cells; format: cell-based; conditions: calculated with 1600 Da MW
Procedure: The fixed dose of AP1903 (Rimiducid) for injection used, for example, may be 0.4 mg/kg intravenously infused over 2 hours. The amount of AP1903 (Rimiducid) needed in vitro for effective signaling of cells is 10-100 nM (1600 Da MW). This equates to 16-160 μg/L or […]. Doses up to 1 mg/kg were well-tolerated in the Phase I study of AP1903 (Rimiducid) described above. Therefore, 0.4 mg/kg may be a safe and effective dose of AP1903 (Rimiducid) for this Phase I study in combination with the therapeutic cells.

CC[C@H](C(=O)N1CCCC[C@H]1C(=O)O[C@H](CCc1ccc(OC)c(OC)c1)c1cccc(OCC(=O)NCCNC(=O)COc2cccc([C@@H](CCc3ccc(OC)c(OC)c3)OC(=O)[C@@H]3CCCCN3C(=O)[C@@H](CC)c3cc(OC)c(OC)c(OC)c3)c2)c1)c1cc(OC)c(OC)c(OC)c1 (relative stereo) [AP1903, 2-Piperidinecarboxylic acid, 1-[(2S)-1-oxo-2-(3,4,5-trimethoxyphenyl)butyl]-, 1,2-ethanediylbis[imino (2-oxo-2,1-ethanediyl)oxy-3,1-phenylene[(1R)-3-(3,4-dimethoxyphenyl)propylidene]]ester, [2S-[1(R*),2R*[S*[S*[1(R*),2R*]]]]]-(9C1)]
amount needed in vitro for effective signaling of cells (cells [1]): 10 to 100 nM
killing of cells comprising P-BCMA-101 in vivo [2]: highly efficient killing
lowest concentration of the study at which apoptosis is induced (Human pan T-cells): 0.1 nM
plasma levels versus dose ([3]; 0.01, 0.05, 0.1, 0.5 and 1.0 mg/kg): directly proportional to dose
plasma level as % of maximal concentration ([3]; 0.5 hours post-dose): approximately 18%
plasma level as % of maximal concentration ([3]; 2 hours post-dose): ~7%
plasma level as % of maximal concentration ([3]; 10 hours post-dose): ~1%
well-tolerated dose ([3]; Phase I study): up to 1 mg/kg
safety and tolerability ([3]; all dose levels 0.01-1.0 mg/kg, single dose IV over 2 hours): safe and well tolerated at all dose levels
pharmacokinetic profile ([3]; healthy volunteers): favorable pharmacokinetic profile
mean Cmax ([3]; over the 0.01-1.0 mg/kg dose range, IV infusion over 2 hours, 24 healthy volunteers): 10 to 1275 ng/mL
amount needed for effective signaling, converted to dose (cells [4]): 0.016 to 1.6 µg/kg
amount needed for effective signaling, converted to mass concentration (cells [4]): 16 to 160 µg/L
